Results published in the kinase profiling compilation of Christmann-Franck et al. (2016).

Columns and labels:
Experiment in all cases: radiometric filter-binding kinase assay, Kinase HotSpot
Conditions in all cases: compound 0.5 µM; ATP 10 µM
ABL1 (human) = ABL1 (human) (UniProt P00519)
ABL2 (human) = ABL2 (human) (UniProt P42684)
CAMK2D (human) = CAMK2D (human) (UniProt Q13557)
CDK4 CCND1 (human) = CDK4 CCND1 (human) (UniProt P24385+P11802)
CHEK1 (human) = CHEK1 (human) (UniProt O14757)
CLK4 (human) = CLK4 (human) (UniProt Q9HAZ1)
CSNK1A1 (human) = CSNK1A1 (human) (UniProt P48729)
CSNK1G3 (human) = CSNK1G3 (human) (UniProt Q9Y6M4)
CSNK2A2 (human) = CSNK2A2 (human) (UniProt P19784)
DYRK1B (human) = DYRK1B (human) (UniProt Q9Y463)
DYRK4 (human) = DYRK4 (human) (UniProt Q9NR20)
EPHB1 (human) = EPHB1 (human) (UniProt P54762)
IKBKB (human) = IKBKB (human) (UniProt O14920)
IRAK1 (human) = IRAK1 (human) (UniProt P51617)
[1] = target: JAK1 JH1 catalytic (human) (UniProt P23458)
JAK2 JH1 JH2 (human) = JAK2 JH1 JH2 (human) (UniProt O60674)
MAP3K11 (human) = MAP3K11 (human) (UniProt Q16584)
MAPK10 (human) = MAPK10 (human) (UniProt P53779)
MAPK11 (human) = MAPK11 (human) (UniProt Q15759)
MAPK3 (human) = MAPK3 (human) (UniProt P27361)
MAPK8 (human) = MAPK8 (human) (UniProt P45983)
MAPKAPK5 (human) = MAPKAPK5 (human) (UniProt Q8IW41)
MARK4 (human) = MARK4 (human) (UniProt Q96L34)
NUAK1 (human) = NUAK1 (human) (UniProt O60285)
PAK4 (human) = PAK4 (human) (UniProt O96013)
PAK7 (human) = PAK7 (human) (UniProt Q9P286)
PIM3 (human) = PIM3 (human) (UniProt Q86V86)
PRKCB2 (human) = PRKCB2 (human) (UniProt P05771)
PRKCD (human) = PRKCD (human) (UniProt Q05655)
PRKCH (human) = PRKCH (human) (UniProt P24723)
PRKD2 (human) = PRKD2 (human) (UniProt Q9BZL6)
ROCK1 (human) = ROCK1 (human) (UniProt Q13464)
ROCK2 (human) = ROCK2 (human) (UniProt O75116)
ROS1 (human) = ROS1 (human) (UniProt P08922)
SIK2 (human) = SIK2 (human) (UniProt Q9H0K1)
STK17A (human) = STK17A (human) (UniProt Q9UEE5)
STK39 (human) = STK39 (human) (UniProt Q9UEW8)
TBK1 (human) = TBK1 (human) (UniProt Q9UHD2)
TSSK2 (human) = TSSK2 (human) (UniProt Q96PF2)

CLK4 (human), sequence (Q9HAZ1 whole entry, looked up): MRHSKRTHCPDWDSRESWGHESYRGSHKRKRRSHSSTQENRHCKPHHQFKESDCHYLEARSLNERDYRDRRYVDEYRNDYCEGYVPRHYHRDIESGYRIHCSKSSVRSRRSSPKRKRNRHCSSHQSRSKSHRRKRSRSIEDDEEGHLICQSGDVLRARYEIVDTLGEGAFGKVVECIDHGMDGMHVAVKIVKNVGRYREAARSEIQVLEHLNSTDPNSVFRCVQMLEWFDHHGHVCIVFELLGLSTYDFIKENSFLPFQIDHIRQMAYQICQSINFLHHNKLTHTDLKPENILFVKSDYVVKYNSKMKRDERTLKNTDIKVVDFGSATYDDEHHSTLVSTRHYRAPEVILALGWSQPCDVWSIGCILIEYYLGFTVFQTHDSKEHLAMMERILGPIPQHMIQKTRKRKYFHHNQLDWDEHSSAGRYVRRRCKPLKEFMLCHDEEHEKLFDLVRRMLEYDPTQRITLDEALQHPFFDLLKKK
JAK2 JH1 JH2 (human), sequence (O60674 whole entry, looked up): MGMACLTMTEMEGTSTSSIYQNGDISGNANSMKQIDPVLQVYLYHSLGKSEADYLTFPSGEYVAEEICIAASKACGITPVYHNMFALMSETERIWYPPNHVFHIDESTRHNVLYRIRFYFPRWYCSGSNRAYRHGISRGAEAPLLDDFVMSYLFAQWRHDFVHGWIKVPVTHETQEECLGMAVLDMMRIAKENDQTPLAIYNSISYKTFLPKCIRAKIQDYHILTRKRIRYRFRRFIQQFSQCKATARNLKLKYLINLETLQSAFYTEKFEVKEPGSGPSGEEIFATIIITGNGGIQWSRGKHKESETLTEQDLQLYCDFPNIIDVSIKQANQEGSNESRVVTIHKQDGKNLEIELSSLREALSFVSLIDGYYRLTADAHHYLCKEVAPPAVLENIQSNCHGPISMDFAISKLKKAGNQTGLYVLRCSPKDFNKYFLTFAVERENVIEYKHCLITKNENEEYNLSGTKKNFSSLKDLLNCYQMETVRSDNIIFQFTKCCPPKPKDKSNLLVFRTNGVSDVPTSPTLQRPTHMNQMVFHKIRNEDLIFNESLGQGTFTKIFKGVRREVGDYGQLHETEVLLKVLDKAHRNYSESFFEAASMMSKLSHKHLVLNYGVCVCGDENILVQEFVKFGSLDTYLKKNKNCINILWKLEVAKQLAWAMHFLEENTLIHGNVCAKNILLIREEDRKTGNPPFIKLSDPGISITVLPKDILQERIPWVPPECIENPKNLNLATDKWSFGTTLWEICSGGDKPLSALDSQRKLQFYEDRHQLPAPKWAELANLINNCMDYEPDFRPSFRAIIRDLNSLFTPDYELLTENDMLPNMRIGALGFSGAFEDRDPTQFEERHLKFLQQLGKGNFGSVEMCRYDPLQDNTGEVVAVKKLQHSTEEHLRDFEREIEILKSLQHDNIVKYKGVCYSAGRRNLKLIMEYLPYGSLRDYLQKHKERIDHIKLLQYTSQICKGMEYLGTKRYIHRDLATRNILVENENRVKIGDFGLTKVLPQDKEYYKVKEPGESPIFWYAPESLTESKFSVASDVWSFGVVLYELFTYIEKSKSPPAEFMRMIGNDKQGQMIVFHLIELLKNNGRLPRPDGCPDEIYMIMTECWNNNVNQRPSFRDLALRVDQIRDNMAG
MAPK8 (human), sequence (P45983 whole entry, looked up): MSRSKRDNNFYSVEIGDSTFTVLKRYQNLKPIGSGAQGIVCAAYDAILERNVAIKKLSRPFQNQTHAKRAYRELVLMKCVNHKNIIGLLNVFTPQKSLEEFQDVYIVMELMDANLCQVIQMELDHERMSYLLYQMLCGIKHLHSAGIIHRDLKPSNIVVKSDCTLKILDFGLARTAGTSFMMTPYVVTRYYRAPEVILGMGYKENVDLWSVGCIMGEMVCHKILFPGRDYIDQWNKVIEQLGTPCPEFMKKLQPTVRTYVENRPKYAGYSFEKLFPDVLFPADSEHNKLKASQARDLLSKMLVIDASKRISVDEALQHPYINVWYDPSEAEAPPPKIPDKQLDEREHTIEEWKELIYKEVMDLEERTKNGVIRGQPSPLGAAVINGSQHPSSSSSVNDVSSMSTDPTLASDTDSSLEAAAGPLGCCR
MAPK11 (human), sequence (Q15759 whole entry, looked up): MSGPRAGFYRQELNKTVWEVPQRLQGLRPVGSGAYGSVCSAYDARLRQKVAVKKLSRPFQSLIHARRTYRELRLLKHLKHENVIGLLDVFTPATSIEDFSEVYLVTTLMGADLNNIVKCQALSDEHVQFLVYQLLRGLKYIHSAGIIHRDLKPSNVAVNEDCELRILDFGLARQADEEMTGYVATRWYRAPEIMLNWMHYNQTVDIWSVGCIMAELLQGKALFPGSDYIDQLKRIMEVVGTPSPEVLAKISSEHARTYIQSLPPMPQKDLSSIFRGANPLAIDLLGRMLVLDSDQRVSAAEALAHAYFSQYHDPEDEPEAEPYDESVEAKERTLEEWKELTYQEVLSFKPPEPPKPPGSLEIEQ
MAPKAPK5 (human), sequence (Q8IW41 whole entry, looked up): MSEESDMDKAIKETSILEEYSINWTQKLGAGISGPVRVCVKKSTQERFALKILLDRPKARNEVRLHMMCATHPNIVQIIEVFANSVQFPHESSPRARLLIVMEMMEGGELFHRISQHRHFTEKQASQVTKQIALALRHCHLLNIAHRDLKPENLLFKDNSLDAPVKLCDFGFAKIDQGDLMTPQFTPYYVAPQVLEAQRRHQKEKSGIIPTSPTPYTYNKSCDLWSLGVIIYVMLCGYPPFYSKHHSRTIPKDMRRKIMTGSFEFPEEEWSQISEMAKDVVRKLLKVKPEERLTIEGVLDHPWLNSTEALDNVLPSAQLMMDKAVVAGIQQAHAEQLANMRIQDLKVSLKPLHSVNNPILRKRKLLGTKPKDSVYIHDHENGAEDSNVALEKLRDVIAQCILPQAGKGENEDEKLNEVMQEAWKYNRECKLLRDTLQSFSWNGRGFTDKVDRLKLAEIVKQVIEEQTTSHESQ
SIK2 (human), sequence (Q9H0K1 whole entry, looked up): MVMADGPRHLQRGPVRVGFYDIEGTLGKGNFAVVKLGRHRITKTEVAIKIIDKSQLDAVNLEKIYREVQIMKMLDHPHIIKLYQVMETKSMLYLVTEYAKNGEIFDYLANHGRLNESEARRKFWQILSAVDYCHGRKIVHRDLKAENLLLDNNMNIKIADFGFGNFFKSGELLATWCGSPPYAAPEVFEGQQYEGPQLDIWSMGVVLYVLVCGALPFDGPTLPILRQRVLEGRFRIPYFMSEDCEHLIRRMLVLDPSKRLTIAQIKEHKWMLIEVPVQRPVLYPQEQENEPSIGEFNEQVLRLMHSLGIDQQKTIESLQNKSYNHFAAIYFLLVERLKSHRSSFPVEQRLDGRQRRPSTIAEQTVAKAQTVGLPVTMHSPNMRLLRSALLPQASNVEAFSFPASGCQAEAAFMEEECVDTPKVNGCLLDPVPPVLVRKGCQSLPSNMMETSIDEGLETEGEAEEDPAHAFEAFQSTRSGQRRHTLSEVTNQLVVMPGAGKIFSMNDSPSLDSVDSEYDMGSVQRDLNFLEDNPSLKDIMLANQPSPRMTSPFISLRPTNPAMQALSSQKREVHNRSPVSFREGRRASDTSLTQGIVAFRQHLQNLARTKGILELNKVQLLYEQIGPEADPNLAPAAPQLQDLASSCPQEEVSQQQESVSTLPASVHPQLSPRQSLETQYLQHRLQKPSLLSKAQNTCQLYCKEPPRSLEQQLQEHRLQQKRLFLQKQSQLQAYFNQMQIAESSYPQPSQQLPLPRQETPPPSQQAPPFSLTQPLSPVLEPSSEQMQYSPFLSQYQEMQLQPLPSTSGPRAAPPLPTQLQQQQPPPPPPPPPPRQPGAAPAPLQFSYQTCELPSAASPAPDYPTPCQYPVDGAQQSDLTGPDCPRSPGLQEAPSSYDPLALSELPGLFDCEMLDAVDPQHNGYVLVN
PRKD2 (human), sequence (Q9BZL6 whole entry, looked up): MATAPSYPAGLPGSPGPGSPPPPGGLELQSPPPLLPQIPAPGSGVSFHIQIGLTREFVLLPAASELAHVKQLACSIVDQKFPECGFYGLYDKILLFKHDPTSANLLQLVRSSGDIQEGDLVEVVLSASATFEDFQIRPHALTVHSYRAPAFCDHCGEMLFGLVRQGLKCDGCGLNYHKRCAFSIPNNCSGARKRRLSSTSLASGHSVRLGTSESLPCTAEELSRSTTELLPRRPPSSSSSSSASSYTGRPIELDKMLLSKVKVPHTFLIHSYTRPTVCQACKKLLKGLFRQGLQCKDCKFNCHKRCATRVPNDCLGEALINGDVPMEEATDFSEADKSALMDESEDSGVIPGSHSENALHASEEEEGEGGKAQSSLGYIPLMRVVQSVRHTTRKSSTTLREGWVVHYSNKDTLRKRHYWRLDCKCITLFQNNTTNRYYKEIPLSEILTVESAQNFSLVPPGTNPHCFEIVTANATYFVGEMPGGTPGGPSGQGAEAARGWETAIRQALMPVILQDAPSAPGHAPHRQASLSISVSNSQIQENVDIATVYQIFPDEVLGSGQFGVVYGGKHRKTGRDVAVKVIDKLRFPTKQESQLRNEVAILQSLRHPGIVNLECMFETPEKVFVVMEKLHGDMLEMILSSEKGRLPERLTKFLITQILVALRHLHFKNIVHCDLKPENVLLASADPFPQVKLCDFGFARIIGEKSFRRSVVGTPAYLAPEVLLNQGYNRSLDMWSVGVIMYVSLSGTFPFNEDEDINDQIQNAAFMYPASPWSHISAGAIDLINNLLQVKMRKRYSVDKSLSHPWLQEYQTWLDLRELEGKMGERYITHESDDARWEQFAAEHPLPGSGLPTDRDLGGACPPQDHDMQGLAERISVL
CSNK2A2 (human), sequence (P19784 whole entry, looked up): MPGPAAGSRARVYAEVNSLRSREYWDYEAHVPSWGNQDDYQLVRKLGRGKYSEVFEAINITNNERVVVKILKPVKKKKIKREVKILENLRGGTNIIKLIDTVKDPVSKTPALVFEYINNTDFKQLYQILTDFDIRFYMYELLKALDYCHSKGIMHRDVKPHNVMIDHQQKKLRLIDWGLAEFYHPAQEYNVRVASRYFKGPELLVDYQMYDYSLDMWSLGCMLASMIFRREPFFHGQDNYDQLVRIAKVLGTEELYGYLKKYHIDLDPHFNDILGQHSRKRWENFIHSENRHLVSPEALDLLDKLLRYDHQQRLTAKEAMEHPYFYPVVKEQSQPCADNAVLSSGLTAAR

Structure (SMILES): O=C1NC(=O)C(c2cn(CCCn3ccnc3)c3ccccc23)=C1Nc1ccccc1
- residual activity (ABL1 (human)): 96.1%
- residual activity (ABL2 (human)): 91.8%
- residual activity (CAMK2D (human)): 85.4%
- residual activity (CDK4 CCND1 (human)): 99.1%
- residual activity (CHEK1 (human)): 76.6%
- residual activity (CLK4 (human)): 38.9%
- residual activity (CSNK1A1 (human)): 102%
- residual activity (CSNK1G3 (human)): 110%
- residual activity (CSNK2A2 (human)): 87.6%
- residual activity (DYRK1B (human)): 56.3%
- residual activity (DYRK4 (human)): 89%
- residual activity (EPHB1 (human)): 102%
- residual activity (IKBKB (human)): 110%
- residual activity (IRAK1 (human)): 118%
- residual activity [1]: 82.1%
- residual activity (JAK2 JH1 JH2 (human)): 84.3%
- residual activity (MAP3K11 (human)): 13.3%
- residual activity (MAPK10 (human)): 100%
- residual activity (MAPK11 (human)): 111%
- residual activity (MAPK3 (human)): 103%
- residual activity (MAPK8 (human)): 99.6%
- residual activity (MAPKAPK5 (human)): 96.4%
- residual activity (MARK4 (human)): 92.6%
- residual activity (NUAK1 (human)): 70.6%
- residual activity (PAK4 (human)): 97.8%
- residual activity (PAK7 (human)): 94.2%
- residual activity (PIM3 (human)): 97.5%
- residual activity (PRKCB2 (human)): 4.29%
- residual activity (PRKCD (human)): 19.3%
- residual activity (PRKCH (human)): 29.7%
- residual activity (PRKD2 (human)): 94.3%
- residual activity (ROCK1 (human)): 99.2%
- residual activity (ROCK2 (human)): 100%
- residual activity (ROS1 (human)): 78.7%
- residual activity (SIK2 (human)): 90.3%
- residual activity (STK17A (human)): 93.1%
- residual activity (STK39 (human)): 99.2%
- residual activity (TBK1 (human)): 48%
- residual activity (TSSK2 (human)): 97.9%

Structure (SMILES): CCN(CC)C(=O)c1ccc(Nc2nc(OCC3CCCCC3)c3nc[nH]c3n2)cc1
- residual activity (ABL1 (human)): 67.1%
- residual activity (ABL2 (human)): 67.8%
- residual activity (CAMK2D (human)): 94.5%
- residual activity (CDK4 CCND1 (human)): 82%
- residual activity (CHEK1 (human)): 66.1%
- residual activity (CLK4 (human)): 44.2%
- residual activity (CSNK1A1 (human)): 104%
- residual activity (CSNK1G3 (human)): 61.7%
- residual activity (CSNK2A2 (human)): 90.9%
- residual activity (DYRK1B (human)): 90.2%
- residual activity (DYRK4 (human)): 93.6%
- residual activity (EPHB1 (human)): 75.4%
- residual activity (IKBKB (human)): 97.3%
- residual activity (IRAK1 (human)): 93.8%
- residual activity [1]: 51.8%
- residual activity (JAK2 JH1 JH2 (human)): 4.21%
- residual activity (MAP3K11 (human)): 5.55%
- residual activity (MAPK10 (human)): 108%
- residual activity (MAPK11 (human)): 85.5%
- residual activity (MAPK3 (human)): 101%
- residual activity (MAPK8 (human)): 51.1%
- residual activity (MAPKAPK5 (human)): 87.8%
- residual activity (MARK4 (human)): 93.8%
- residual activity (NUAK1 (human)): 3.67%
- residual activity (PAK4 (human)): 51.5%
- residual activity (PAK7 (human)): 49.1%
- residual activity (PIM3 (human)): 109%
- residual activity (PRKCB2 (human)): 95%
- residual activity (PRKCD (human)): 76.7%
- residual activity (PRKCH (human)): 86.7%
- residual activity (PRKD2 (human)): 67%
- residual activity (ROCK1 (human)): 54.9%
- residual activity (ROCK2 (human)): 39.8%
- residual activity (ROS1 (human)): 69.9%
- residual activity (SIK2 (human)): 75.3%
- residual activity (STK17A (human)): 59.8%
- residual activity (STK39 (human)): 91.5%
- residual activity (TBK1 (human)): 25.4%
- residual activity (TSSK2 (human)): 87.4%

Structure (SMILES): COc1ccc2c(c[n+](C)c3c4cc5c(cc4ccc23)OCO5)c1OC
- residual activity (ABL1 (human)): 92.7%
- residual activity (ABL2 (human)): 96.7%
- residual activity (CAMK2D (human)): 90.4%
- residual activity (CDK4 CCND1 (human)): 87.5%
- residual activity (CHEK1 (human)): 94.4%
- residual activity (CLK4 (human)): 89.9%
- residual activity (CSNK1A1 (human)): 103%
- residual activity (CSNK1G3 (human)): 92.5%
- residual activity (CSNK2A2 (human)): 89.7%
- residual activity (DYRK1B (human)): 102%
- residual activity (DYRK4 (human)): 95.1%
- residual activity (EPHB1 (human)): 90.4%
- residual activity (IKBKB (human)): 103%
- residual activity (IRAK1 (human)): 103%
- residual activity [1]: 88.5%
- residual activity (JAK2 JH1 JH2 (human)): 102%
- residual activity (MAP3K11 (human)): 95%
- residual activity (MAPK10 (human)): 100%
- residual activity (MAPK11 (human)): 91.6%
- residual activity (MAPK3 (human)): 108%
- residual activity (MAPK8 (human)): 89.8%
- residual activity (MAPKAPK5 (human)): 83.5%
- residual activity (MARK4 (human)): 99.3%
- residual activity (NUAK1 (human)): 96.6%
- residual activity (PAK4 (human)): 99.5%
- residual activity (PAK7 (human)): 77.4%
- residual activity (PIM3 (human)): 99.6%
- residual activity (PRKCB2 (human)): 100%
- residual activity (PRKCD (human)): 96.8%
- residual activity (PRKCH (human)): 101%
- residual activity (PRKD2 (human)): 90.1%
- residual activity (ROCK1 (human)): 99.4%
- residual activity (ROCK2 (human)): 92.5%
- residual activity (ROS1 (human)): 119%
- residual activity (SIK2 (human)): 95.5%
- residual activity (STK17A (human)): 104%
- residual activity (STK39 (human)): 90.8%
- residual activity (TBK1 (human)): 96.2%
